Experimental data from publication PMC7397659, “Pseudonajide peptide derived from snake venom alters cell envelope integrity interfering on biofilm formation in Staphylococcus epidermidis” (BMC Microbiology, 2020).
Where no end group is shown, it is not given here.

Key:
[1] = tested on: S. epidermidis ATCC 35984; test: Antibiofilm formation test, crystal violet protocol; format: cell-based, Staphylococcus epidermidis; conditions: 100 μM peptide, 24 h exposure, crystal violet OD570, at least 3 biological replicates
Method: S. epidermidis ATCC 35984 and Pseudomonas aeruginosa PAO1 were used to test the antimicrobial and antibiofilm activities of the peptides. Both bacteria were grown in blood agar plates and cultured overnight at 37 °C. Cell suspensions were prepared in a solution of 0.9% NaCl and adjusted to OD600 for a final concentration of ~ 10^8 cells/ml. For microscopy analysis, pre-inoculum was made in tryptic soy broth (TSB, Merck), and adjusted to OD600 for the same concentration of cells for all tests.
Serial dilution of peptides was performed in 96-well plates, going from 100 to 3.12 μM. Cell suspensions and TSB were added to the plates and a control was made with dimethyl sulfoxide (DMSO). Antibiofilm formation tests were performed with an adapted protocol, in which it is described that 24 h of incubation is sufficient to determinate antibiofilm activity. The OD600 was measured, then biofilm content accessed using the crystal violet protocol. Biofilm eradication test was performed supplementing 24 h pre-formed biofilm with a new culture broth, containing or not 25 μM of peptide. The plates were incubated for further 24 h followed by crystal violet protocol. The antimicrobial activity of pseudonajide was analyzed using a concentration of 25 μM after 1, 2, 4, and 24 h incubation. After measuring the optical density, the supernatant was collected and diluted. […] CFUs were counted after 24 h incubation. […]

[2] = tested on: Caco-2 (colorectal adenocarcinoma); test: Cytotoxicity test, ImPACcell platform; format: cell-based, human; conditions: 25 μM, 24 h
Method: (§1) Cytotoxicity tests were performed on the ImPACcell robotic platform (BIOSIT, Université de Rennes 1). This featured high-throughput multiparameter image analysis, with both high-content screening and high-content analysis. The platform is equipped with an Olympus microscope and Compix SimplePCI software; a Zeiss Axio Imager M1 microscope with a Zeiss camera and AxioVision software; and imaging systems including an ArrayScan VTI Cellomics reader (Thermo Fisher), Hamilton STARlet and NIMBUS workstations, and a Scienion spotter. Cells used in the test were obtained from an already-existing collection available at BIOSIT (https://biosit.univ-rennes1.fr/impaccell-imagerie-pour-analyse-du-contenu-cellulaire). For the tests, seven different cell lines were used: human hepatocellular carcinoma (HuH7); colorectal adenocarcinoma (Caco-2); breast adenocarcinoma (MDA-MB231); colorectal carcinoma (HCT116); prostatic adenocarcinoma (PC3); lung carcinoma (NCL-H727); and breast cancer (MCF7). The residual cell percentages reported correspond to viable cells compared to the average viable cells in the DMSO control. Viability of 100% represents no cytotoxicity or inhibition of cell growth, while under 25–30% is considered cytotoxic and 0% represents acute cytotoxicity.

[3] = tested on: HCT116 (colorectal carcinoma); test: Cytotoxicity test, ImPACcell platform; format: cell-based, human; conditions: 25 μM, 24 h
Method: as §1

[4] = tested on: HuH7 (hepatocellular carcinoma); test: Cytotoxicity test, ImPACcell platform; format: cell-based, human; conditions: 25 μM, 24 h
Method: as §1

MCF7 (breast cancer) = test: Cytotoxicity test, ImPACcell platform; format: cell-based, human; conditions: 25 μM, 24 h
Method: as §1

[5] = tested on: MDA-MB231 (breast adenocarcinoma); test: Cytotoxicity test, ImPACcell platform; format: cell-based, human; conditions: 25 μM, 24 h
Method: as §1

[6] = tested on: NCL-H727 (lung carcinoma); test: Cytotoxicity test, ImPACcell platform; format: cell-based, human; conditions: 25 μM, 24 h
Method: as §1

[7] = tested on: PC3 (prostatic adenocarcinoma); test: Cytotoxicity test, ImPACcell platform; format: cell-based, human; conditions: 25 μM, 24 h
Method: as §1

| Sequence | reduction of biofilm mass [1] [%] | live cell counts compared to control [2] | live cell counts compared to control [3] | live cell counts compared to control [4] | live cell counts compared to control (MCF7 (breast cancer)) | live cell counts compared to control [5] | live cell counts compared to control [6] | live cell counts compared to control [7] |
| --- | --- | --- | --- | --- | --- | --- | --- | --- |
| KRFKKFFKKVK [Peptide 1] | 77 |  |  |  |  |  |  |  |
| KRFKKFFMKLK [Peptide 2] |  | no decrease in live cell counts | no decrease in live cell counts | no decrease in live cell counts | no decrease in live cell counts | no decrease in live cell counts | no decrease in live cell counts | no decrease in live cell counts |
| KRFKKFFKKLK [Peptide 3] | 78 |  |  |  |  |  |  |  |
